Values after ≈ are worked out from the molar mass of the structure shown. Read-outs that look alike come from different tables or passages of the source.
Key:
B. cereus ATCC14579 = assay: microbe, parasite or virus in culture; format: cell-based, Bacillus cereus; details: for MIC: Bacillus cereus, ATCC14579, 20 h, read-out: Minimal Inhibition Concentration (MIC) B. cereus ATCC14579
C. difficile CECT531 = assay: microbe, parasite or virus in culture; format: cell-based, Clostridioides difficile; details: for MIC: Clostridioides difficile, CECT531, 24 h, read-out: Minimal Inhibition Concentration (MIC) C. difficile CECT531
E. faecalis V583 = assay: microbe, parasite or virus in culture; format: cell-based, Enterococcus faecalis; details: for MIC: Enterococcus faecalis, V583, 20 h, read-out: Minimal Inhibition Concentration (MIC) E. faecalis V583
E. faecalis LMG08222 = assay: microbe, parasite or virus in culture; format: cell-based, Enterococcus faecalis
C. beijerinckii B504 = assay: MIC test, anaerobes; format: cell-based
Protocol: (§1) The resveratrol derivatives were serially diluted in cMHB (BD Difco) in 96-well microplates. Plates were then inoculated with the indicator bacteria at a final concentration of 5 × 10^5 CFU/mL and incubated at 37 °C for 20 h. In the case of the anaerobic bacteria (Clostridium and Clostridioides), the test was performed following the recommendation of CLSI for anaerobes[77] but using RCM medium instead of cMHB. The cultures were cultivated inside an anaerobic chamber at 37 °C for 24 h. All the tests were performed in triplicate.

C. ihumii AP5 = assay: MIC test, anaerobes; format: cell-based; details: 24 h, read-out: Minimal Inhibition Concentration (MIC) C. ihumii AP5
Protocol: as §1

E. faecalis LMG16216 = assay: microbe, parasite or virus in culture; format: cell-based, Enterococcus faecalis
S.aureus LMG8224 = assay: microbe, parasite or virus in culture; format: cell-based, Staphylococcus aureus
E. faecium LMG16003 = assay: microbe, parasite or virus in culture; format: cell-based
B. cereus ATCC10987 [1] = assay: microbe, parasite or virus in culture; format: cell-based, Bacillus cereus; details: for MIC: Bacillus cereus, ATCC10987, 20 h, read-out: Minimal Inhibition Concentration (MIC) B. cereus ATCC10987
[2] = tested on: B. cereus ATCC 10987, E. faecalis V583, E. faecium LMG 16003, and S. aureus LMG 8224; format: cell-based; details: 2-fold the MIC, 24 h, cMHB
E. faecium LMG11423 = assay: microbe, parasite or virus in culture; format: cell-based
[3] = tested on: B. cereus ATCC10987 respiratory chain; assay: Activity of the respiratory chain (resazurin reduction); format: cell-based, Bacillus cereus; details: dose-related, 125 min
Protocol: The effect of the resveratrol derivatives on the B. cereus ATCC10987 respiratory chain was measured by the reduction of resazurin to the fluorescent resorufin. The bacteria were cultured in LB medium at 37 °C to an OD600 of 1. Then, the cells were washed three times in cMHB and resuspended in this medium at a final OD600 of 0.2. Resazurin at 100 μg/mL was added to the cells that were distributed in a 96-well plate. […] No treated cells and just MHB medium with resazurin were used as negative controls. All the tests were performed in triplicate.

C. botulinum CECT551 = assay: microbe, parasite or virus in culture; format: cell-based
C. perfringens CECT376 = assay: microbe, parasite or virus in culture; format: cell-based; details: for MIC: Clostridium perfringens, CECT376, 24 h, read-out: Minimal Inhibition Concentration (MIC) C. perfringens CECT376
B. cereus ATCC10987 [4] = assay: Effect of the compounds on actively growing bacteria (lysis, OD600); format: cell-based, Bacillus cereus
B. cereus ATCC10987 [5] = assay: Intracellular ATP level quantification (BacTiter-Glo); details: 32 μM of the compounds (100 μM for CCCP), 30, 60, and 120 min, 37 °C
in vitro = details: human
E. coli LMG8224 = assay: Outer membrane permeabilization test (MIC with or without L-11 peptide); details: for MIC: Escherichia coli, LMG8224, read-out: MIC (μM) L-11 + 0 μM; for MIC (μM) L-11 + 4 μM: presence of 4 μM L-11 outer-membrane-perturbing peptide
S.aureus LMG15975 = assay: microbe, parasite or virus in culture; format: cell-based, Staphylococcus aureus
S.aureus LMG10147 = assay: microbe, parasite or virus in culture; format: cell-based, Staphylococcus aureus; details: for MIC: Staphylococcus aureus, LMG10147, 20 h, read-out: Minimal Inhibition Concentration (MIC) S.aureus LMG10147
C. tetani CECT4629 = assay: microbe, parasite or virus in culture; format: cell-based
[6] = tested on: E. faecium LMG16003 and S. aureus LMG82224; assay: Combination with 24 traditional antibiotics, overall outcome; format: cell-based
Enterococcus strains = assay: Time killing kinetic and minimal bactericidal concentration, Enterococcus; format: cell-based
[7] = tested on: panel of aerobic and anaerobic Gram-positive bacteria; assay: organism not typed; format: cell-based
S. aureus = tested on: S. aureus; parameters: method as in PMID 29906565; details: cited from earlier work
B. cereus ATTC10987 = assay: Membrane integrity assay (propidium iodide uptake); format: cell-based, Bacillus cereus; details: 2×, 1×, and 0.5× the MIC
Protocol: B. cereus ATTC10987 was grown in LB with shaking at 37 °C for 18 h. After that, the cells were centrifuged and washed in 5 mM HEPES buffer (pH 7.4) plus 5 mM glucose (G-HEPES buffer) three times, adjusted to an OD600 of 0.5 in the same buffer plus 10 μg/mL of propidium iodide (Sigma-Aldrich), and incubated for 10 min at 37 °C. This is a nonfluorescent dye impermeable to the bacterial membranes, but, if the membranes are disturbed, the dye can enter by binding the DNA, providing a strong fluorescent signal. […] The experiment was performed in triplicate.

B. cereus ATCC10987 [8] = assay: Membrane potential assay DiSC3(5); details: 2×, 1×, and 0.5× the MIC
[9] = Table 1, 128 to 2 μM, RCM medium, anaerobic, 24 h

Compound `CC(C)[Si](Oc1cc(O)cc(/C=C/c2ccc(O)cc2)c1)(C(C)C)C(C)C` [compound 32] has an MIC (B. cereus ATCC14579) of 8 µM (≈ 3.08 µg/mL), an MIC (C. difficile CECT531) of 16 µM (≈ 6.15 µg/mL) and an MIC (E. faecalis V583) of 8 µM (≈ 3.08 µg/mL). For the same compound, the MIC (E. faecalis LMG08222; Enterococcus faecalis, LMG08222, 20 h, read-out: Minimal Inhibition Concentration (MIC) E. faecalis LMG08222) was 4 µM (≈ 1.54 µg/mL), the MIC (C. beijerinckii B504; Clostridium beijerinckii, B504, 24 h, read-out: Minimal Inhibition Concentration (MIC) C. beijerinckii B504) was 10.7 ± 2.6 µM (≈ 4.12 µg/mL) and the MIC (C. ihumii AP5) was 16 µM (≈ 6.15 µg/mL). It also gave an MIC (E. faecalis LMG16216; Enterococcus faecalis, LMG16216, 20 h, read-out: Minimal Inhibition Concentration (MIC) E. faecalis LMG16216) of 4 µM (≈ 1.54 µg/mL), an MIC (S.aureus LMG8224; Staphylococcus aureus, LMG8224, 20 h, read-out: Minimal Inhibition Concentration (MIC) S.aureus LMG8224) of 8 µM (≈ 3.08 µg/mL) and an MIC (E. faecium LMG16003; Enterococcus faecium, LMG16003, 20 h, read-out: Minimal Inhibition Concentration (MIC) E. faecium LMG16003) of 4 µM (≈ 1.54 µg/mL). For the same compound, the MIC (B. cereus ATCC10987 [1]) was 8 µM (≈ 3.08 µg/mL), the bactericidal/bacteriostatic effect [2] was “bactericidal” and the MIC (E. faecium LMG11423; Enterococcus faecium, LMG11423, 20 h, read-out: Minimal Inhibition Concentration (MIC) E. faecium LMG11423) was 4 µM (≈ 1.54 µg/mL). The “effect on the respiratory chain (reduction of resazurin)” value [3] was “comparable to or even higher than that of the proton ionophore decoupler of the electron transport chain CCCP”, the MIC (C. botulinum CECT551; Clostridium botulinum, CECT551, 24 h, read-out: Minimal Inhibition Concentration (MIC) C. botulinum CECT551) was 8 µM (≈ 3.08 µg/mL) and the MIC (C. perfringens CECT376) was 16 µM (≈ 6.15 µg/mL). The “lysis of actively growing cells” value (B. cereus ATCC10987 [4]; 2×, 1×, and 0.5× the MIC added at mid exponential phase) was “most effective derivatives lysing the cells”, the “intracellular ATP levels” value (B. cereus ATCC10987 [5]) was “reduced dramatically the ATP levels” and the IC50 (in vitro) was 1.8 ± 0.1 µM. For the same compound, the MIC (E. coli LMG8224) was over 128 µM, the “MIC (μM) L-11 + 4 μM” value (E. coli LMG8224) was 8 ± 0 µM and the MIC (S.aureus LMG15975; Staphylococcus aureus, LMG15975, 20 h, read-out: Minimal Inhibition Concentration (MIC) S.aureus LMG15975) was 8 µM (≈ 3.08 µg/mL). The MIC (S.aureus LMG10147) was 8 µM (≈ 3.08 µg/mL) and the MIC (C. tetani CECT4629; Clostridium tetani, CECT4629, 24 h, read-out: Minimal Inhibition Concentration (MIC) C. tetani CECT4629) was 5.3 ± 1.3 µM (≈ 2.04 µg/mL).

In the case of “4′-tert-butyldimethylsilyl resveratrol [compound 17]”, the “Minimal Inhibition Concentration (MIC) B. cereus ATCC14579” value (B. cereus ATCC14579) is reported as 4 ± 0 µM, the “Minimal Inhibition Concentration (MIC) C. difficile CECT531” value (C. difficile CECT531) is reported as 21.3 ± 5.3 µM and the “Minimal Inhibition Concentration (MIC) E. faecalis V583” value (E. faecalis V583) is reported as 8 ± 0 µM. The “Minimal Inhibition Concentration (MIC) E. faecalis LMG08222” value (E. faecalis LMG08222) was 6.6 ± 1.3 µM, the “combined effect with traditional antibiotics” value [6] was “an additive effect was mainly observed” and the “Minimal Inhibition Concentration (MIC) C. beijerinckii B504” value (C. beijerinckii B504; [9]) was 10.6 ± 2.6 µM. For the same compound, the MIC (C. ihumii AP5; Table 1, 128 to 2 μM, RCM medium, anaerobic) was 16 µM, the IC50 (MRC5 cells) was 15.5 ± 1.3 µM and the “Minimal Inhibition Concentration (MIC) E. faecalis LMG16216” value (E. faecalis LMG16216) was 8 ± 0 µM. For the same compound, the “Minimal Inhibition Concentration (MIC) S.aureus LMG8224” value (S.aureus LMG8224) was 8 ± 0 µM, the “Minimal Inhibition Concentration (MIC) E. faecium LMG16003” value (E. faecium LMG16003) was 8 ± 0 µM and the “Minimal Inhibition Concentration (MIC) B. cereus ATCC10987” value (B. cereus ATCC10987 [1]) was 8 ± 0 µM. For the same compound, the bactericidal/bacteriostatic effect [2] was “bactericidal”, the “Minimal Inhibition Concentration (MIC) E. faecium LMG11423” value (E. faecium LMG11423) was 8 ± 0 µM and the “Minimal Inhibition Concentration (MIC) C. botulinum CECT551” value (C. botulinum CECT551; [9]) was 13.3 ± 2.6 µM. The “Minimal Inhibition Concentration (MIC) C. perfringens CECT376” value (C. perfringens CECT376) was 13.3 ± 2.6 µM, the “effect on actively growing cells” value (B. cereus ATCC10987 [4]; at 2× the MIC) was “bactericidal” and the “effect on actively growing cells” value (B. cereus ATCC10987 [4]; at the MIC concentration) was “bacteriostatic”. The “MIC (μM) L-11 + 0 μM” value (E. coli LMG8224; absence of L-11 outer-membrane-perturbing peptide) was over 128 µM, the “MIC (μM) L-11 + 4 μM” value (E. coli LMG8224) was 13.3 ± 2.6 µM and the “Minimal Inhibition Concentration (MIC) S.aureus LMG15975” value (S.aureus LMG15975) was 8 ± 0 µM. The “Minimal Inhibition Concentration (MIC) S.aureus LMG10147” value (S.aureus LMG10147) was 8 ± 0 µM and the “Minimal Inhibition Concentration (MIC) C. tetani CECT4629” value (C. tetani CECT4629; [9]) was 5.3 ± 1.3 µM.

For `CCCCOc1cc(/C=C/c2ccc(OS(=O)(=O)O)cc2)cc(OS(=O)(=O)O)c1` [compound 15, 3-butyl-4′,5-disulfate resveratrol], the MIC (B. cereus ATCC14579) was 6.6 ± 1.3 µM (≈ 2.93 µg/mL), the MIC (C. difficile CECT531) was 64 µM (≈ 28.4 µg/mL) and the MIC (E. faecalis V583) was 26.6 ± 5.3 µM (≈ 11.8 µg/mL). The “combined effect with traditional antibiotics” value [6] was “strong synergistic effects”, the MIC (B. cereus ATCC10987 [1]) was 8 µM (≈ 3.56 µg/mL) and the MIC (C. perfringens CECT376) was 26.6 ± 5.3 µM (≈ 11.8 µg/mL). For the same compound, the “effect on actively growing cells” value (B. cereus ATCC10987 [4]; at 2× the MIC) was “bactericidal”, the “effect on actively growing cells” value (B. cereus ATCC10987 [4]; at the MIC concentration) was “bacteriostatic” and the IC50 (in vitro) was 24.9 ± 4 µM. The MIC (E. coli LMG8224) was over 128 µM, the bactericidal/bacteriostatic effect (Enterococcus strains; Enterococcus strains, 2-fold the MIC, 24 h, minimal bactericidal concentration test) was “bacteriostatic” and the MBC (Enterococcus strains; Enterococcus, read-out: minimal bactericidal concentration (bacteria grew after the treatment)) was over 128 µM. The MIC (S.aureus LMG10147) was 8 µM (≈ 3.56 µg/mL) and the “antibacterial activity against the Gram-positive panel” value [7] was “active against all Gram-positive bacterial strains examined”.

In the case of `Oc1ccc(/C=C/c2cc(O)cc(O)c2)cc1` [compound 1, Resveratrol], the “concentration 0.5× the MIC at which additive effects with aminoglycosides were obtained” value (S. aureus) is listed as “about 560 μM”, the “effect on the respiratory chain (reduction of resazurin)” value [3] is listed as “No effect” and the “membrane permeabilization (propidium iodide uptake)” value (B. cereus ATTC10987) is listed as “did not induce any effect on membrane permeability”. The “membrane potential change (DiSC3(5))” value (B. cereus ATCC10987 [8]) was “did not induce any membrane potential change”, the “intracellular ATP levels” value (B. cereus ATCC10987 [5]) was “did not statistically affect the ATP levels” and the IC50 at 72 h (in vitro) was 56.6 ± 3.2 µM.
